Reference: EP0326331B1, “Substituted quinolines and cinnolines” (Dow AgroSciences LLC, priority 1988, dated 1989)
Where two headings read alike, the source gives them in different places.

Key:
Assay type in all cases: in vivo
[1] = system: Puccinia recondita tritici (leaf rust); experiment: Test 1 greenhouse foliar spray screen, leaf rust on wheat; conditions: disease control rating, foliar spray on wheat, 400 ppm (+++ at 100 ppm)
[2] = system: Twospotted spider mites (Tetranychus urticae Koch); experiment: Mite/insect screen, SM; conditions: percent mortality; for mortality at 200 ppm: Tetranychus urticae, read-out: SM RESULTS %
How it was run: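 Foliar spray to runoff (10 psi), 1 h drying; aqueous dilutions from acetone/alcohol emulsifier stock. Mortality (%) after standard exposure.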

[3] = system: southern armyworm (Spodopetra eridania Cramer); experiment: Mite/insect screen, SAW; conditions: percent mortality; for mortality at 200 ppm: Spodoptera eridania, read-out: SAW RESULTS %
How it was run: (§1)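 Read-out: percent mortality after standard exposure periods. Test solutions were water dilutions of compound dissolved in acetone/alcohol (50:50) with emulsifier blends; leaves were sprayed to runoff on both surfaces and air-dried for one hour before exposure.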

corn rootworm = experiment: Mite/insect screen, CRW; conditions: percent mortality; for mortality at 12 ppm: read-out: CRW RESULTS %
How it was run: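 Read-out: % mortality after standard exposure. Formulation: acetone/alcohol (50:50) with emulsifiers at 23 g and 13 g per liter, water-diluted to final test levels.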

[4] = system: Botrytis cinerea (gray mold); experiment: Test 1 greenhouse foliar spray screen, gray mold on grape berries; conditions: disease control rating, spray on grape berries, 400 ppm (+++ at 100 ppm)
[5] = system: Venturia inaequalis (apple scab); experiment: Test 1 greenhouse foliar spray screen, apple scab on apple seedling; conditions: disease control rating, foliar spray on apple seedling, 400 ppm (+++ at 100 ppm)
[6] = system: Septoria tritici (leaf blotch); experiment: Test 1 greenhouse foliar spray screen, leaf blotch on wheat; conditions: disease control rating, foliar spray on wheat, 400 ppm (+++ at 100 ppm)
[7] = system: melon aphids (Aphis gossypii Glover); experiment: Mite/insect screen, MA; conditions: percent mortality; for mortality at 200 ppm: Aphis gossypii, read-out: MA RESULTS %
How it was run: as §1

[8] = system: Pseudoperonospora cubensis (downy mildew); experiment: Test 1 greenhouse foliar spray screen, downy mildew on squash; conditions: for DOWN MDEW: disease control rating, foliar spray on squash, 400 ppm (+++ at 100 ppm)
[9] = system: Erysiphe graminis tritici (powdery mildew); experiment: Test 1 greenhouse foliar spray screen, powdery mildew on wheat; conditions: disease control rating, foliar spray on wheat, 400 ppm (+++ at 100 ppm)
[10] = system: Pyricularia oryzae (rice blast); experiment: whole plant or invertebrate; conditions: disease control rating, foliar spray on rice, 400 ppm (+++ at 100 ppm)
[11] = system: Cercospora beticola (leaf spot); experiment: Test 1 greenhouse foliar spray screen, leaf spot on sugar beet; conditions: disease control rating, foliar spray on sugar beet, 400 ppm (+++ at 100 ppm)
[12] = foliar, rate 200 ppm, foliar spray on squash

Compound	LEAF RUST [1]	mortality at 200 ppm ([2]; SAW, SM & MA RATE 200 PPM)	mortality at 200 ppm ([3]; SAW, SM & MA RATE 200 PPM)	mortality at 12 ppm (corn rootworm; CRW RATE 12.00 PPM)	GRAY MOLD [4]	APPL SCAB [5]	LEAF BLOT [6]	mortality at 200 ppm ([7]; SAW, SM & MA RATE 200 PPM)	DOWN MDEW [8]	POWD MDEW [9]	RICE BLAST [10]	LEAF SPOT [11]	SM RESULTS % ([2]; SAW, SM & MA RATE 200 PPM)	MA RESULTS % ([7]; SAW, SM & MA RATE 200 PPM)	also measured
Fc1cc(F)c2nccc(NCCc3ccccc3)c2c1 [Example 7, 6,8-difluoro-N-(2-phenylethyl)-4-quinolinamine]	+++ (90-100% control at 100 ppm)	0%	0%	0%	- (0-19% control at 400 ppm)	- (0-19% control at 400 ppm)	+++ (90-100% control at 100 ppm)	0%	+++ (90-100% control at 100 ppm)	+ (20-89% control at 400 ppm)	+ (20-89% control at 400 ppm)	- (0-19% control at 400 ppm)	–	–	–
Cc1ccc2nccc(NCCc3ccccc3)c2c1 [Example 30, 6-methyl-N-(2-phenylethyl)-4-quinolinamine]	+ (20-89% control at 400 ppm)	0%	0%	0%	- (0-19% control at 400 ppm)	- (0-19% control at 400 ppm)	- (0-19% control at 400 ppm)	0%	+++ (90-100% control at 100 ppm)	- (0-19% control at 400 ppm)	+ (20-89% control at 400 ppm)	–	–	–	–
Clc1ccc2c(NCCc3ccccc3)ccnc2c1 [Example 31, 7-chloro-N-(2-phenylethyl)-4-quinolinamine]	+ (20-89% control at 400 ppm)	0%	0%	0%	- (0-19% control at 400 ppm)	- (0-19% control at 400 ppm)	- (0-19% control at 400 ppm)	0%	+++ (90-100% control at 100 ppm)	++ (90-100% control at 400 ppm)	+ (20-89% control at 400 ppm)	–	–	–	–
Cc1ccc2c(NCCc3ccccc3)ccnc2c1C [Example 32, 7,8-dimethyl-N-(2-phenylethyl)-4-quinolinamine]	- (0-19% control at 400 ppm)	0%	0%	0%	- (0-19% control at 400 ppm)	- (0-19% control at 400 ppm)	- (0-19% control at 400 ppm)	0%	+++ (90-100% control at 100 ppm)	+ (20-89% control at 400 ppm)	+ (20-89% control at 400 ppm)	–	–	–	–
Clc1cccc2c(NCCc3ccccc3)ccnc12 [Example 33, 8-chloro-N-(2-phenylethyl)-4-quinolinamine]	+ (20-89% control at 400 ppm)	0%	0%	0%	- (0-19% control at 400 ppm)	- (0-19% control at 400 ppm)	- (0-19% control at 400 ppm)	0%	+++ (90-100% control at 100 ppm)	- (0-19% control at 400 ppm)	+ (20-89% control at 400 ppm)	–	–	–	activity against downy mildew ([8]; summary statement in the description): particularly excellent activity
Cc1ccc(CCNc2ccnc3c(F)cccc23)cc1 [Example 71, 8-fluoro-N-[2-(4-methylphenyl)ethyl]-4-quinolinamine]	+++ (90-100% control at 100 ppm)	0%	0%	–	- (0-19% control at 400 ppm)	- (0-19% control at 400 ppm)	+ (20-89% control at 400 ppm)	0%	+++ (90-100% control at 100 ppm)	+ (20-89% control at 400 ppm)	+ (20-89% control at 400 ppm)	+++ (90-100% control at 100 ppm)	0%	0%	SAW RESULTS % ([3]; SAW, SM & MA RATE 200 PPM): 0%
Fc1cccc2c(NCCc3cccc(Cl)c3)ccnc12 [Example 74, N-[2-(3-chlorophenyl)ethyl]-8-fluoro-4-quinolinamine]	+++ (90-100% control at 100 ppm)	0%	–	0%	- (0-19% control at 400 ppm)	- (0-19% control at 400 ppm)	- (0-19% control at 400 ppm)	0%	+++ (90-100% control at 100 ppm)	+ (20-89% control at 400 ppm)	+ (20-89% control at 400 ppm)	+++ (90-100% control at 100 ppm)	0%	0%	CRW RESULTS % (corn rootworm; CRW RATE 12.00 PPM): 0%
CC(CNc1ccnc2c(F)cccc12)c1ccc(Cl)cc1 (centres unmarked) [Example 79, N-[2-(4-chlorophenyl)propyl]-8-fluoro-4-quinolinamine]	++ (90-100% control at 400 ppm)	0%	–	0%	- (0-19% control at 400 ppm)	- (0-19% control at 400 ppm)	+ (20-89% control at 400 ppm)	0%	+++ (90-100% control at 100 ppm)	+ (20-89% control at 400 ppm)	++ (90-100% control at 400 ppm)	+++ (90-100% control at 100 ppm)	0%	0%	CRW RESULTS % (corn rootworm; CRW RATE 12.00 PPM): 0%
c1ccc(CCNc2cc(NCCc3ccccc3)c3ccccc3n2)cc1 [Example 181, N,N'-bis(2-phenylethyl)-2,4-quinolinediamine]	+ (20-89% control at 400 ppm)	–	–	–	- (0-19% control at 400 ppm)	- (0-19% control at 400 ppm)	- (0-19% control at 400 ppm)	–	+++ (90-100% control at 100 ppm)	+ (20-89% control at 400 ppm)	+ (20-89% control at 400 ppm)	–	–	–	mortality at 200 ppm [2, 12]: 0%; mortality at 200 ppm [3, 12]: 0%; mortality at 12 ppm (corn rootworm; CRW rate 12.00 ppm): 0%; mortality at 200 ppm [7, 12]: 0%
